# US20220290237A1, “METHOD FOR PREDICTING THE RESPONSE OF ANTIPSYCHOTIC DRUGS” (INSERM (INSTITUT NATIONAL DE LA SANTÉ ET DE LA RECHERCHE …, priority 2019, published 2022)
# What was measured:
# [1] = Clinical response (total PANSS score change) over 4 weeks of amisulpride, OPTiMiSE first episode psychosis; format: in vivo, human
# From the text: The cohort analysed in this study was obtained from the OPTiMiSE clinical trial (http://www.optimisetrial.eu) (29). After providing written informed consent, 491 patients with a first episode psychosis were included and 453 started medication. All patients were diagnosed with schizophrenia, schizophreniform disorder or schizoaffective disorder according to the Diagnostic and Statistical Manual of Mental Disorders, Fourth Edition (DSM-IV) and confirmed on the basis of the Mini International Neuropsychiatric Interview Plus (M.I.N.I. Plus) (30) (table 4). At baseline, patients were medication-naïve or minimally-treated (any antipsychotic medication used for […] 2 weeks in the previous year or for a total of 6 weeks in their lifetime) and were ill for no longer than 2 years. Only subjects involved in the single-treatment arm (phase 1) of the trial were considered for this study (29). All patients were treated for 4 weeks with amisulpride (200-800 mg/day orally). At the end of the 4-week treatment, the blood concentration of antipsychotic used has been determined. This measurement provided a reliable indication of the treatment compliance of individual patients.
# A clinical response to treatment can be defined according to many criteria. […] Note that good responders were slightly older than poor responders with a lower duration of untreated psychosis and more positive symptoms (data not shown).
# [2] = test system: total RNA from blood samples; assay: qRT-PCR replication of expression changes after amisulpride treatment in 24 independent subjects; format: in vivo, human; settings: 4 weeks amisulpride
# Description: Total RNA was extracted from blood samples, collected in PAXgene Blood RNA tubes, with the PAXgene Blood miRNA Kit (QIAGEN GmbH, Hilden, Germany) using a standard protocol on QlAcube robot (QIAGEN). A DNase digestion procedure was added after extraction. Total RNA was purified using the RNA Clean & Concentrator™-5 kit following the manufacturer's instructions (Zymo Research Corp., Irvine, USA). RNA quantification was performed on a NanoDrop™ 8000 spectrophotometer, in duplicate. The quality and integrity of the RNA samples were assessed using an Agilent Bioanalyzer 2100 and the RNA6000 Nano Labchip kit (Agilent Technologies). Only samples with an RNA integrity number (RIN) higher than 7 were selected. Three hundred and seventy-six RNA samples fulfilled quality control criteria for RNA-seq analyses, corresponding to two RNA samples (one at inclusion and one after 4 weeks of treatment) for 188 subjects. Forty-eight additional RNAs were available for replication studies, in 24 independent subjects.
# Five-hundred nanograms of total RNA was reverse-transcribed using the High-Capacity cDNA Reverse Transcription kit following standard protocol (Thermo Fisher Scientific, Waltham, Mass., U.S.A.). Mixtures of the cDNAs and the TaqMan Universal PCR Master Mix were further loaded in the 384-well low density TaqMan array microfluidic cards (Thermo Fisher Scientific). Real-time PCR reactions were then carried out in an ABI Prism 7900HT sequence detection system (Thermo Fisher Scientific) using manufacturer's instructions. Each assay was carried out in duplicate and threshold cycle (Ct) values were automatically calculated by the SDS 2.2 software (Thermo Fisher Scientific), after having manually set the analysis threshold. Two reference genes (18S, and GUSB) with various expression levels were included in the analyses to perform a relative RNA quantification, using the most suitable reference gene.
# For the qRT-PCR analysis, ΔCt values of each gene of interest were calculated before and after treatment and then normalized by subtracting the ΔCt values of the reference gene to generate ΔΔCt values. To select genes with significant expression changes after treatment, the medians of fold changes (2-ΔΔCt) were subsequently compared to a reference (Me=1) using Wilcoxon Rank Sum Test, and an adjusted p-values below 0.1 was considered to be significant.
# To validate these DEGs, we used qRT-PCR in 24 independent subjects from the OPTiMiSE cohort, who were not included in the RNA-seq analyses and with a more than 20% improvement in total PANSS score after treatment (FIG. 1). We selected only brain-expressed protein-coding genes that were differentially expressed after treatment in good responders only. In addition, we restricted our selection to genes for which the expression change was correlated with symptom improvement (Table 1). […] In addition, two genes (P4HA2 and TRPC6) were removed from replication studies, because they were not detectable by qRT-PCR. Eleven genes were thus tested in the replication sample.
# [3] = admixture model of total PANSS score change over 4 weeks of treatment, 200-800 mg/day orally
# [4] = of 188 subjects, 4 weeks of treatment
compound,measurement,setting,value
"CCN1CCCC1CNC(=O)c1cc(S(=O)(=O)CC)c(N)cc1OC (centres unmarked) [amisulpride, 4-amino-N-((1-ethyl-2-pyrrolidinyl)methyl)-5-(etgylsulfonyl)-2-methoxybenzamide]",proportion of good responders,[1]; [3],56%
same,proportion of poor responders,[1]; [3],44%
same,mean reduction of total PANSS score,"[1]; good responders subpopulation of the admixture model, 4 weeks of treatment",36.3%
same,patients with a less than 20% reduction in total PANSS score,[1]; [4],75 patients
same,patients with a more than 20% reduction in total PANSS score,[1]; [4],113 patients
same,mean PANSS total reduction,"[1]; poor responders subpopulation of the admixture model, 4 weeks of treatment",13.0%
same,"FC, fold-change at week 4 relative to the expression level at inclusion: ACSL5","[2]; ACSL5, replication sample (n = 24)",1.06
same,"FC, fold-change at week 4 relative to the expression level at inclusion: ALPL","[2]; ALPL, replication sample (n = 24)",0.77
same,"FC, fold-change at week 4 relative to the expression level at inclusion: CA4","[2]; CA4, replication sample (n = 24)",0.71
same,"FC, fold-change at week 4 relative to the expression level at inclusion: DGAT2","[2]; DGAT2, replication sample (n = 24)",0.73
same,"FC, fold-change at week 4 relative to the expression level at inclusion: DHRS13","[2]; DHRS13, replication sample (n = 24)",0.82
same,"FC, fold-change at week 4 relative to the expression level at inclusion: GALNT14","[2]; GALNT14, replication sample (n = 24)",0.76
same,"FC, fold-change at week 4 relative to the expression level at inclusion: HOMER3","[2]; HOMER3, replication sample (n = 24)",0.84
same,"FC, fold-change at week 4 relative to the expression level at inclusion: KAZN","[2]; KAZN, replication sample (n = 24)",0.67
same,"FC, fold-change at week 4 relative to the expression level at inclusion: KIAA0319","[2]; KIAA0319, replication sample (n = 24)",0.77
same,"FC, fold-change at week 4 relative to the expression level at inclusion: SLC4A4","[2]; SLC4A4, replication sample (n = 24)",0.84
same,"FC, fold-change at week 4 relative to the expression level at inclusion: WLS","[2]; WLS, replication sample (n = 24)",0.85
